Results on two molecules are retold here after US12577597B2, “Transgenic microorganisms and synthesis of piperazic acid, piperazic acid containing products, and derivatives thereof” (Washington University, priority 2017, dated 2026).

The subject of series [1] is Streptomyces flaveolus pzbB (sfaC) deletion mutant. Format: cell-based. The text has this: FIG. 5 is a series of LC/MS spectra showing the detection of sanglifehrin, a Piz—containing compound produced by Streptomyces flaveolus. Four major isobaric isomers of sanglifehrin A detected in WT S. flaveolus fermentation extracts. As expected from the results above, an unmarked gene deletion of pzbB (sfaC) from S. flaveolus abrogates sanglifehrin production.
Data indicating L-Piz successfully penetrates at least one Piz-compound producing actinomycete was obtained, followed by subsequent incorporation into a Piz drug-like compound sanglifehrin (see e.g., FIG. 5). […] Four major isobaric isomers of sanglifehrin A detected in WT S. flaveolus fermentation extracts. As expected from the results in FIG. 5, an unmarked gene deletion of pzbB (sfaC) from S. flaveolus abrogates sanglifehrin production.

Another series concerns SfaC-His6 (PzbB). In words: Hemin influence on SfaC (PzbB) N5-OH-L-ornithine in vitro assay, piperazic acid quantified by HPLC/MS. Format: biochemical, Streptomyces flaveolus. The note with it: hemin 10 μM in DMSO vs DMSO alone; SfaC-His6 2 μM; N5-OH-L-orn 1 mM; 50 mM Tris.HCl pH 8.0; aliquots at 30, 60, 90 sec. The procedure:
As expected for a bona fide cofactor, adding hemin increases the rate of turnover.
100 μL of reaction in 50 mM Tris.HCl at pH 8.0 was set up with N^5—OH-L-orn (1 mM), SfaC-His6 (2 μM), and either hemin in DMSO (10 μM) or just DMSO. The two reactions were incubated at […]. Then, 30 μL aliquots were removed at 30, 60, and 90 sec, and combined with 30 μL 6% 5-sulfosalicylic acid. The cloudy mixture was centrifuged, and the supernatant was used for analysis. Sample was analyzed for piperazic acid by HPLC/MS. Analysis was performed using an lmtakt Intrada Amino Acid column (50×3 mm, 3 μm pore size) installed on an Agilent 1260 Infinity HPLC connected to an Agilent 6420 Triple-Quad mass spectrometer using the following method: T=0, 86% B; T=3, 86% B; T=10, 0% B; T=11, 0% B; T=12, 86% B; T=14, 86% B; A: water+100 mM ammonium formate, B: acetonitrile+0.1% formic acid; 0.6 mL/min. An extracted ion count chromatogram at m/z 131.1 (monoisotopic mass of protonated piperazic acid) was used to detect piperazic acid. For quantification, an SRM transition (m/z 131.1=>56.3; source voltage, 86 V; collision energy, 37 V) was monitored, and a standard curve (second order polynomial, R2=0.9996) was generated between 0.1 μM and 100 μM using a chemically synthesized L-piperazic acid dihydrochloride standard. The concentrations in time were plotted, and fitted to a line. […]

Sequence of SfaC-His6 (PzbB) (as listed by the source): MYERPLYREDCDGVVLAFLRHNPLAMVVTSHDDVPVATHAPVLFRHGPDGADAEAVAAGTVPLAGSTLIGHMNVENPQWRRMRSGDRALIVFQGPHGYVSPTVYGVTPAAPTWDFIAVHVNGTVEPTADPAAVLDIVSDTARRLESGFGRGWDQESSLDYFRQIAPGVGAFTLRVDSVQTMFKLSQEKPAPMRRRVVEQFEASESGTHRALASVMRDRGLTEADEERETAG

Turning to `O=C(O)C1CCCNN1` [L-Piz, L-piperazic acid], in series [1] (50 μM exogenous L-Piz, S. flaveolus), the “toxicity (qualitative)” value is reported as “qualitatively nontoxic”. For the same molecule, the cell penetrance entry in series [1] (inferred from restored sanglifehrin production with 50 μM exogenous L-Piz in S. flaveolus) is reported as “cell penetrant”.

For the molecule Fe^+3-protoporphryin IX [Hemin], in the series on SfaC-His6 (PzbB), the “increase of the slope (rate of reaction, piperazic acid formation) by hemin” value came out at 14.4 times.
